The record followed here is US20250304576A1 (Cancer Research Technology Limited, priority 2022, published 2025).

One test addresses T1, Recombinant IKKα (Homo sapiens, UniProt O15111).
T1 construct: purchased Millipore, Dundee, UK
T1 sequence (O15111 1-745): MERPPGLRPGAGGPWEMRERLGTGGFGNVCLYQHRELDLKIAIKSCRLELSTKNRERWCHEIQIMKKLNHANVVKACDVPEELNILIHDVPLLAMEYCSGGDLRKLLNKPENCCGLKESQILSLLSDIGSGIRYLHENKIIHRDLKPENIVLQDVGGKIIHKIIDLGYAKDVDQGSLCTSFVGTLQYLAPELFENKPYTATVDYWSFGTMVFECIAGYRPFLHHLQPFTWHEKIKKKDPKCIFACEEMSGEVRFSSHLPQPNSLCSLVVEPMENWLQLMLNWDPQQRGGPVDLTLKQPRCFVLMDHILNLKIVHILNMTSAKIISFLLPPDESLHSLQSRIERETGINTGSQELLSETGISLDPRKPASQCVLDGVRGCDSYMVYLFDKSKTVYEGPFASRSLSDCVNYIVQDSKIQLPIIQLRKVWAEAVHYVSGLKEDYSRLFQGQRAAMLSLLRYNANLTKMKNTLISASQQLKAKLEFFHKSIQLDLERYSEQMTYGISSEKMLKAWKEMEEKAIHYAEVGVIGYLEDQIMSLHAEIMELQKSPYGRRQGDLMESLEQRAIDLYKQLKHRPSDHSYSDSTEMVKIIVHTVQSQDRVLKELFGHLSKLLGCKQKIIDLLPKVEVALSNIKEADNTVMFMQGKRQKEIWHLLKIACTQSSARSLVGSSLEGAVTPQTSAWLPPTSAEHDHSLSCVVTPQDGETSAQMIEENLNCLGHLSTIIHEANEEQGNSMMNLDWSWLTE
Put plainly: DELFIA IKKα kinase assay (apparent Ki, Cheng-Prusoff). The test is classed as biochemical. The settings on record: non-italicised figure: DELFIA assay. As for the experimental part: (§1) IKKα and IKKβ inhibitory activity was determined using three different assays: a dissociation enhanced ligand fluorescent immunoassay (DELFIA) based on the protocol of HTScan™ IKKβ Kinase Assay (Cell Signaling Technology, USA); an Adapta IKKα assay (performed by Life Technologies); a Z′-LYTE™ IKKβ assay (performed by Life Technologies).
(§2) Recombinant IKKα or IKKβ, 37 nM, (Millipore, Dundee, UK) was incubated with IηB-α (Ser32) (New England Biolabs, Hitchin, UK) biotinylated peptide substrate (0.375 μM) and 40 μM ATP in assay buffer (40 mM Tris-HCl (pH 7.5), 20 mM MgCl2, EDTA 1 mM, DTT 2 mM and BSA 0.01 mg/ml) in a V-well 96-well plate in the presence and absence of test compound. The assay plate was incubated for 60 minutes at 30° C. after which the kinase reaction was quenched by the addition of 50 mM EDTA, pH8. The resulting mixture was transferred to a streptavidin coated 96-well plate (Perkin Elmer, Beaconsfield, UK) and incubated for 1 hour at 30° C. to immobilise the substrate peptide. After three washes with wash buffer (0.01 M phosphate buffered saline (PBS), 0.05% Tween −20, pH 7.4) a primary antibody against the phosphorylated substrate (phospho-IηB-a) (Ser32/36) (5A5) Mouse mAb (New England Biolabs, Hitchin, UK) (1:1000 dilution with 1% bovine serum albumin (BSA) in wash buffer) was added and incubated at 37° C. for 2 h.
(§3) After a further three washes, a secondary europiated antibody (Eu-N1 labelled anti-mouse IgG, (Perkin Elmer, Beaconsfield, UK) diluted 1:500 in 1% BSA/wash buffer) was added and incubated at 30° C. for 30 minutes. After a further five washes, DELFIA enhancement solution—(Perkin Elmer, Beaconsfield UK) was added and allowed to incubate for 10 min at room temperature, protected from light, to facilitate the chemifluorescent detection. The relative fluorescence units (RFU) signal were measured on a Wallac Victor 1420 multilabel counter (Perkin Elmer, Beaconsfield, UK), in time-resolved fluorescence mode. The counter was set at an excitation wavelength of 340 nm with a 400 μs delay before detecting emitted light at 615 nm. The apparent Ki of the […] was calculated for each compound using the Cheng-Prusoff Equation.
(§4) The IKKα and IKKβ figures quoted in non-italicised form are from the DELFIA assay described above.

The target of another test is T2, Recombinant IKKβ (Homo sapiens, UniProt O14920).
T2 construct: purchased Millipore, Dundee, UK
T2 sequence (O14920 1-756): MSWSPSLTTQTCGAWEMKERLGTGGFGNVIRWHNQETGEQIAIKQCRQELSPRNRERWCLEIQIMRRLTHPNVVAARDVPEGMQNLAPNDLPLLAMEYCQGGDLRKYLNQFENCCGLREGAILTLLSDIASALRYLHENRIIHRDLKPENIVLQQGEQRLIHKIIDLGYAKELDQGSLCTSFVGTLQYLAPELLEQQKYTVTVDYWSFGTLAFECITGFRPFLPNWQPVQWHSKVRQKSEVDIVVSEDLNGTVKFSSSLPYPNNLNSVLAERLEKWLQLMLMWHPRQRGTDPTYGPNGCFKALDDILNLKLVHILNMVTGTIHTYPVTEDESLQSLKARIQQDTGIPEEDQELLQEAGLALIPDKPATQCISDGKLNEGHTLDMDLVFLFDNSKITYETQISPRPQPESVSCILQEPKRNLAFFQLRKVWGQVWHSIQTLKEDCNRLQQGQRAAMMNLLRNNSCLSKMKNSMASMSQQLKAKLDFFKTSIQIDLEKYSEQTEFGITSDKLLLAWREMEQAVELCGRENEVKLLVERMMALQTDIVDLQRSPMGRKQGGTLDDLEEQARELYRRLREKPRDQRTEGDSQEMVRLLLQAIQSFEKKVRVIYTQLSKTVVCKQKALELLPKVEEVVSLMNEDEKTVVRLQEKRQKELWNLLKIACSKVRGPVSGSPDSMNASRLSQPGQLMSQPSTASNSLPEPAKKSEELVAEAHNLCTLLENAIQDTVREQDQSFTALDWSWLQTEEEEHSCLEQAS
Kind of test: DELFIA IKKβ kinase assay (apparent Ki, Cheng-Prusoff). The format is biochemical. The settings on record: non-italicised figure: DELFIA assay. As for the experimental part: as §1, §2, §3, §4

As to `CNCCCNc1cc(-c2ccc3[nH]nc(N)c3c2)ccn1` [Example 32, N^1-(4-(3-Amino-1H-indazol-5-yl)pyridin-2-yl)-N^3-methylpropane-1,3-diamine], the values for the Ki on Recombinant IKKα and at Recombinant IKKβ were 340 nM and > 10000 nM, respectively.
The corresponding values for `Nc1n[nH]c2ccc(-c3ccnc(NC(=O)C4CC4)c3)cc12` [Example 33, N-[4-(3-Amino-1H-indazol-5-yl)pyridin-2-yl]cyclopropanecarboxamide] are 76 nM and 159 nM.
For the compound `Nc1n[nH]c2ccc(-c3ccnc(NC(=O)c4ccccc4)c3)cc12` [Example 34, N-(4-(3-Amino-1H-indazol-5-yl)pyridin-2-yl)benzamide], the values for the Ki on Recombinant IKKα and on Recombinant IKKβ were 26 nM and 350 nM, respectively.
For the compound `CCOC(=O)Nc1cc(-c2ccc3[nH]nc(N)c3c2)ccn1` [Example 35, Ethyl (4-(3-amino-1H-indazol-5-yl)pyridin-2-yl)carbamate], the Ki at Recombinant IKKα was 15 nM; at Recombinant IKKβ it was 470 nM.
Take `CCNC(=O)Nc1cc(-c2ccc3[nH]nc(N)c3c2)ccn1` [Example 36, 1-(4-(3-Amino-1H-indazol-5-yl)pyridine-2-yl)-3-ethylurea]: the Ki came out at 20 nM on Recombinant IKKα and 838 nM at Recombinant IKKβ.
On to `CCCNC(=O)Nc1cc(-c2ccc3[nH]nc(N)c3c2)ccn1` [Example 37, 1-(4-(3-Amino-1H-indazol-5-yl)pyridin-2-yl)-3-propylurea], for which the Ki at Recombinant IKKα came out at 70 nM; at Recombinant IKKβ it was 4100 nM.
The corresponding values for `CC(C)CCNC(=O)Nc1cc(-c2ccc3[nH]nc(N)c3c2)ccn1` [Example 38, 1-(4-(3-Amino-1H-indazol-5-yl)pyridin-2-yl)-3-isopentylurea] are 100 nM and 4200 nM.
The corresponding values for `Nc1n[nH]c2ccc(-c3ccnc(NC(=O)NC4CCCC4)c3)cc12` [Example 39, 1-(4-(3-Amino-1H-indazol-5-yl)pyridin-2-yl)-3-cyclopentylurea] are 114 nM and 970 nM.
The corresponding values for `Nc1n[nH]c2ccc(-c3ccnc(NC(=O)NC4CCCCC4)c3)cc12` [Example 40, 1-(4-(3-Amino-1H-indazol-5-yl)pyridin-2-yl)-3-cyclohexylurea] are 228 nM and > 10000 nM.
Consider `Nc1n[nH]c2ccc(-c3ccnc(NC(=O)NCCO)c3)cc12` [Example 41, 1-(4-(3-Amino-1H-indazol-5-yl)pyridin-2-yl)-3-(2-hydroxyethyl)urea], for which the Ki on Recombinant IKKα stood at 21 nM; at Recombinant IKKβ, 754 nM.
The corresponding values for `Nc1n[nH]c2ccc(-c3ccnc(NC(=O)NCCCO)c3)cc12` [Example 42, 1-(4-(3-Amino-1H-indazol-5-yl)pyridin-2-yl)-3-(3-hydroxypropyl)urea] are 114 nM and 670 nM.
The corresponding values for `COCCNC(=O)Nc1cc(-c2ccc3[nH]nc(N)c3c2)ccn1` [Example 43, 1-(4-(3-Amino-1H-indazol-5-yl)pyridin-2-yl)-3-(2-methoxyethyl)urea] are 76 nM and 1590 nM.
The corresponding values for `CN(CCO)C(=O)Nc1cc(-c2ccc3[nH]nc(N)c3c2)ccn1` [Example 44, 3-(4-(3-Amino-1H-indazol-5-yl)pyridin-2-yl)-1-(2-hydroxyethyl)-1-methylurea] are 418 nM and > 10000 nM.
On to `Nc1n[nH]c2ccc(-c3ccnc(NC(=O)NCc4ccccc4)c3)cc12` [Example 45, 1-(4-(3-Amino-1H-indazol-5-yl)pyridin-2-yl)-3-benzylurea], for which the Ki at Recombinant IKKα turned out to be 152 nM; at Recombinant IKKβ it was 357 nM.
Regarding `Nc1n[nH]c2ccc(-c3ccnc(NC(=O)NCCc4ccccc4)c3)cc12` [Example 46, 1-(4-(3-Amino-1H-indazol-5-yl)pyridin-2-yl)-3-phenethylurea], the results for the Ki on Recombinant IKKα and on Recombinant IKKβ were 571 nM and > 10000 nM, respectively.
The corresponding values for `Nc1n[nH]c2ccc(-c3ccnc(NC(=O)NCc4ccccn4)c3)cc12` [Example 47, 1-(4-(3-Amino-1H-indazol-5-yl)pyridin-2-yl)-3-(pyridin-2-ylmethyl)urea] are 38 nM and 838 nM.
The corresponding values for `Nc1n[nH]c2ccc(-c3ccnc(NC(=O)NCc4cccnc4)c3)cc12` [Example 48, 1-(4-(3-Amino-1H-indazol-5-yl)pyridin-2-yl)-3-(pyridin-3-ylmethyl)urea] are 76 nM and 840 nM.
The corresponding values for `Nc1n[nH]c2ccc(-c3ccnc(NC(=O)NCc4ccncc4)c3)cc12` [Example 49, 1-(4-(3-Amino-1H-indazol-5-yl)pyridin-2-yl)-3-(pyridin-4-ylmethyl)urea] are 304 nM and 1840 nM.
In the case of `Nc1n[nH]c2ccc(-c3ccnc(NC(=O)Nc4ccccc4)c3)cc12` [Example 50, 1-(4-(3-Amino-1H-indazol-5-yl)pyridin-2-yl)-3-phenylurea], the Ki on Recombinant IKKα came out at 12 nM; on Recombinant IKKβ it was 293 nM.
The corresponding values for `Nc1n[nH]c2ccc(-c3ccnc(NC(=O)Nc4cccc(F)c4)c3)cc12` [Example 51, 1-(4-(3-Amino-1H-indazol-5-yl)pyridine-2-yl)-3-(3-fluorophenyl)urea] are 14 nM and 126 nM.
As to `Nc1n[nH]c2ccc(-c3ccnc(NC(=O)Nc4cccc(Cl)c4)c3)cc12` [Example 52, 1-(4-(3-Amino-1H-indazol-5-yl)pyridin-2-yl)-3-(3-chlorophenyl)urea], the Ki on Recombinant IKKα worked out at 36 nM; on Recombinant IKKβ it was 400 nM.
The corresponding values for `CC(C)c1cccc(NC(=O)Nc2cc(-c3ccc4[nH]nc(N)c4c3)ccn2)c1` [Example 53] are 14 nM and 419 nM.
The corresponding values for `Nc1n[nH]c2ccc(-c3ccnc(NC(=O)Nc4cccc(CO)c4)c3)cc12` [Example 54, 1-(4-(3-Amino-1H-indazol-5-yl)pyridin-2-yl)-3-(3-(hydroxymethyl)phenyl)urea] are 14 nM and 419 nM.
The corresponding values for `NC(=O)c1cccc(NC(=O)Nc2cc(-c3ccc4[nH]nc(N)c4c3)ccn2)c1` [Example 55, 3-(3-(4-(3-Amino-1H-indazol-5-yl)pyridin-2-yl)ureido)benzamide] are 21 nM and 503 nM.
